Results: patent US8580965B2, “Substituted sulfonamide compounds” (Gruenenthal GmbH, priority 2006, dated 2013)

How the values were obtained:
[1] = target: T1, B1R receptor of the rat (bradykinin 1 receptor) (Rattus norvegicus, UniProt P97583); test: FLIPR Ca2+ assay (Fluo-4) on CHO K1 cells stably transfected with the B1R gene of the rat; % activation and % inhibition at 10 μM; assay type: cell-based; settings: CHO-K1, test substance 10 μM; CHO K1 rB1R cells; Ca2+ inflow after 100 nM Des-Arg9-bradykinin; read-out: B1R antagonism, rat [10 μM] % inhibition
T1 construct: host or cells: CHO K1 cells (rB1R cells)
T1 sequence (P97583 1-337): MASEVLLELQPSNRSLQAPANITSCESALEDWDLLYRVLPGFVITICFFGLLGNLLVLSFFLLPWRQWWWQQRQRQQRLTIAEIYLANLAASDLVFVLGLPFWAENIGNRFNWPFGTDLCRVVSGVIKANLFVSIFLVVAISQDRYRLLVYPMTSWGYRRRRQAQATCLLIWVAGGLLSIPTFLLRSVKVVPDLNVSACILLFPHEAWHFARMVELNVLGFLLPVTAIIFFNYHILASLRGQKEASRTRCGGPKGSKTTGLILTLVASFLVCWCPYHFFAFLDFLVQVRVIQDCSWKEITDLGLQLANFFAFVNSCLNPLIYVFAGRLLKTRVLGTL
In short: (§1)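 CHO K1 cells stably expressing human or rat B1R, Fluo-4 loaded, read by FLIPR (peak fluorescence). Compound at 10 µM first gives % activation versus agonist; after 10 min, agonist (human: 0.5 nM Lys-Des-Arg9-bradykinin; rat: 100 nM Des-Arg9-bradykinin) gives % inhibition relative to maximal inhibition.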

[2] = target: T2, human B1R receptor (bradykinin 1 receptor) (Homo sapiens, UniProt P46663); test: FLIPR Ca2+ assay (Fluo-4) on CHO K1 cells stably transfected with the human B1R gene; % activation and % inhibition at 10 μM; assay type: cell-based; settings: CHO-K1, test substance 10 μM; CHO K1 hB1R cells; Ca2+ inflow after 0.5 nM Lys-Des-Arg9-bradykinin; read-out: B1R antagonism, human [10 μM] % inhibition
T2 construct: host or cells: CHO K1 cells (hB1R cells)
T2 sequence (P46663 1-353): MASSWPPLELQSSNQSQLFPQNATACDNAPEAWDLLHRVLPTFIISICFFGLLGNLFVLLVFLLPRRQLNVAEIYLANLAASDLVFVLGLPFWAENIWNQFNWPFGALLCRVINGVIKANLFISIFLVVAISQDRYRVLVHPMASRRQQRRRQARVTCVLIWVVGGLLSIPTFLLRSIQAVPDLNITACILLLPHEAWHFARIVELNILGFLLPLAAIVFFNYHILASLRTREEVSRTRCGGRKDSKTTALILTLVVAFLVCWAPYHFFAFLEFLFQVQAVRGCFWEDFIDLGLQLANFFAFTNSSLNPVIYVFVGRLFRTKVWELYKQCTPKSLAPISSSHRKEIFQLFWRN
In short: as §1

inhibition at 10 µM [1] [%] | inhibition at 10 µM [2] [%] | Structure (SMILES)
87.3 | 70.8 | O=C(COC1CCCN(S(=O)(=O)c2c(Cl)cc(Cl)cc2Cl)C1)N1CCC(O)(Cc2ccccc2)CC1 (centres unmarked) [Example 249, 1-(4-benzyl-4-hydroxypiperidin-1-yl)-2-(1-(2,4,6-trichlorophenylsulfonyl)piperidin-3-yloxy)ethanone]
76.3 | 18 | O=C(COC1CCCN(S(=O)(=O)c2c(Cl)cc(Cl)cc2Cl)C1)N1CCC(O)(c2ccc(Cl)c(C(F)(F)F)c2)CC1 (centres unmarked) [Example 250, 1-(4-(4-chloro-3-(trifluoromethyl)phenyl)-4-hydroxypiperidin-1-yl)-2-(1-(2,4,6-trichlorophenylsulfonyl)piperidin-3-yloxy)ethanone]
92.9 | 47.8 | COc1cc(C)c(S(=O)(=O)N2CCCC(COCC(=O)N3CCC(O)(c4ccc(Cl)cc4)CC3)C2)c(C)c1 (centres unmarked) [Example 251, 1-(4-(4-chlorophenyl)-4-hydroxypiperidin-1-yl)-2-((1-(4-methoxy-2,6-dimethylphenylsulfonyl)piperidin-3-yl)methoxy)ethanone]
100 | 32.7 | COc1cc(C)c(S(=O)(=O)N2CCCC(COCC(=O)N3CCC(O)(Cc4ccccc4)CC3)C2)c(C)c1 (centres unmarked) [Example 252, 1-(4-benzyl-4-hydroxypiperidin-1-yl)-2-((1-(4-methoxy-2,6-dimethylphenylsulfonyl)piperidin-3-yl)methoxy)ethanone]
36.8 | 62.5 | O=C(COCC1CCCN(S(=O)(=O)c2c(Cl)cc(Cl)cc2Cl)C1)N1CCC(O)(c2ccc(Cl)cc2)CC1 (centres unmarked) [Example 254, 1-(4-(4-chlorophenyl)-4-hydroxypiperidin-1-yl)-2-((1-(2,4,6-trichlorophenylsulfonyl)piperidin-3-yl)methoxy)ethanone]
73.7 | 82.5 | O=C(COCC1CCCN(S(=O)(=O)c2c(Cl)cc(Cl)cc2Cl)C1)N1CCC(O)(c2ccccc2)CC1 (centres unmarked) [Example 255, 1-(4-hydroxy-4-phenylpiperidin-1-yl)-2-((1-(2,4,6-trichlorophenylsulfonyl)piperidin-3-yl)methoxy)ethanone]
90.7 | 56.3 | Cc1cc(S(=O)(=O)N(C)CCOCC(=O)N2CCC(O)(c3ccc(Cl)cc3)CC2)c(C)s1 [Example 256, N-(2-(2-(4-(4-chlorophenyl)-4-hydroxypiperidin-1-yl)-2-oxoethoxy)ethyl)-N,2,5-trimethylthiophene-3-sulfonamide]

Second part, the compound before the results:

Structure (SMILES) | inhibition at 10 µM [1] [%] | inhibition at 10 µM [2] [%]
COc1cc(C)c(S(=O)(=O)N2Cc3ccccc3CC2COCC(=O)N2CCC(O)(c3cccc(C(F)(F)F)c3)CC2)c(C)c1C (centres unmarked) [Example 233, 1-(4-hydroxy-4-(3-(trifluoromethyl)phenyl)piperidin-1-yl)-2-((2-(4-methoxy-2,3,6-trimethylphenylsulfonyl)-1,2,3,4-tetrahydroisoquinolin-3-yl)methoxy)ethanone] | 70.2 | 38.9
O=C(COCC1CCCCN1S(=O)(=O)c1c(Cl)cccc1Cl)N1CCC(O)(c2ccc(Br)cc2)CC1 (centres unmarked) [Example 234, 1-(4-(4-bromophenyl)-4-hydroxypiperidin-1-yl)-2-((1-(2,6-dichlorophenylsulfonyl)piperidin-2-yl)methoxy)ethanone] | 99.3 | 102
O=C(COCC1CCCCN1S(=O)(=O)c1c(Cl)cccc1Cl)N1CCC(O)(c2cccc(C(F)(F)F)c2)CC1 (centres unmarked) [Example 235, 2-((1-(2,6-dichlorophenylsulfonyl)piperidin-2-yl)methoxy)-1-(4-hydroxy-4-(3-(trifluoromethyl)phenyl)piperidin-1-yl)ethanone] | 99.9 | 103
O=C(COCC1CCCCN1S(=O)(=O)c1c(Cl)cccc1Cl)N1CCC(O)(c2ccc(Cl)c(C(F)(F)F)c2)CC1 (centres unmarked) [Example 236, 1-(4-(4-chloro-3-(trifluoromethyl)phenyl)-4-hydroxypiperidin-1-yl)-2-((1-(2,6-dichlorophenylsulfonyl)piperidin-2-yl)methoxy)ethanone] | 99.9 | 102
COc1cc(C)c(S(=O)(=O)N(CCOCC(=O)N2CCC(O)(c3ccc(Cl)c(C(F)(F)F)c3)CC2)CC2CC2)c(C)c1C [Example 237, N-(2-(2-(4-(4-chloro-3-(trifluoromethyl)phenyl)-4-hydroxypiperidin-1-yl)-2-oxoethoxy)ethyl)-N-(cyclopropylmethyl)-4-methoxy-2,3,6-trimethylphenyl-sulfonamide] | 100 | 103
COc1cc(C)c(S(=O)(=O)N(CCOCC(=O)N2CCC(O)(c3ccc(Cl)c(C(F)(F)F)c3)CC2)CC(C)C)c(C)c1C [Example 238, N-(2-(2-(4-(4-chloro-3-(trifluoromethyl)phenyl)-4-hydroxypiperidin-1-yl)-2-oxoethoxy)ethyl)-N-isobutyl-4-methoxy-2,3,6-trimethylphenylsulfonamide] | 97.4 | 57.3
COc1cc(C)c(S(=O)(=O)N2CCCC2COCC(=O)N2CCC(O)(c3cccs3)CC2)c(C)c1 (centres unmarked) [Example 239, 1-(4-hydroxy-4-(thiophen-2-yl)piperidin-1-yl)-2-((1-(4-methoxy-2,6-dimethylphenylsulfonyl)pyrrolidin-2-yl)methoxy)ethanone] | 98.9 | 105
COc1cc(C)c(S(=O)(=O)N(CCOCC(=O)N2CCC(O)(c3cccnc3)CC2)CC2CC2)c(C)c1C [Example 240, N-(cyclopropylmethyl)-N-(2-(2-(4-hydroxy-4-(pyridin-3-yl)piperidin-1-yl)-2-oxoethoxy)ethyl)-4-methoxy-2,3,6-trimethylphenylsulfonamide] | 99.4 | 103
COc1cc(C)c(S(=O)(=O)N(CCOCC(=O)N2CCC(O)(c3cccnc3)CC2)CC(C)C)c(C)c1C [Example 241, N-(2-(2-(4-hydroxy-4-(pyridin-3-yl)piperidin-1-yl)-2-oxoethoxy)ethyl)-N-isobutyl-4-methoxy-2,3,6-trimethylphenylsulfonamide] | 101 | 103
COc1cc(C)c(S(=O)(=O)N2CCCCC2COCC(=O)N2CCC(O)(c3ccc(Cl)cc3)CC2)c(C)c1 (centres unmarked) [Example 242, 1-(4-(4-chlorophenyl)-4-hydroxypiperidin-1-yl)-2-((1-(4-methoxy-2,6-dimethylphenylsulfonyl)piperidin-2-yl)methoxy)ethanone] | 98.4 | 101
COc1cc(C)c(S(=O)(=O)N2CCCCC2COCC(=O)N2CCC(O)(c3ccc(Br)cc3)CC2)c(C)c1 (centres unmarked) [Example 243, 1-(4-(4-bromophenyl)-4-hydroxypiperidin-1-yl)-2-((1-(4-methoxy-2,6-dimethylphenylsulfonyl)piperidin-2-yl)methoxy)ethanone] | 96.8 | 104
COc1cc(C)c(S(=O)(=O)N2CCCCC2COCC(=O)N2CCC(O)(c3ccccc3)CC2)c(C)c1 (centres unmarked) [Example 244, 1-(4-hydroxy-4-phenylpiperidin-1-yl)-2-((1-(4-methoxy-2,6-dimethylphenylsulfonyl)piperidin-2-yl)methoxy)ethanone] | 99.3 | 105
COc1cc(C)c(S(=O)(=O)N2CCCCC2COCC(=O)N2CCC(O)(Cc3ccccc3)CC2)c(C)c1 (centres unmarked) [Example 245, 1-(4-benzyl-4-hydroxypiperidin-1-yl)-2-((1-(4-methoxy-2,6-dimethylphenylsulfonyl)piperidin-2-yl)methoxy)ethanone] | 97.7 | 99.8
COc1cc(C)c(S(=O)(=O)N2CCCCC2COCC(=O)N2CCC(O)(c3ccc(Cl)c(C(F)(F)F)c3)CC2)c(C)c1 (centres unmarked) [Example 246, 1-(4-(4-chloro-3-(trifluoromethyl)phenyl)-4-hydroxypiperidin-1-yl)-2-((1-(4-methoxy-2,6-dimethylphenylsulfonyl)piperidin-2-yl)methoxy)ethanone] | 99 | 103
O=C(COCC1CCN(S(=O)(=O)c2c(Cl)cc(Cl)cc2Cl)C1)N1CCC(O)(Cc2ccccc2)CC1 (centres unmarked) [Example 248, 1-(4-benzyl-4-hydroxypiperidin-1-yl)-2-((1-(2,4,6-trichlorophenylsulfonyl)pyrrolidin-3-yl)methoxy)ethanone] | 85.1 | 40
